Test results reported in patent US6656937B2, “Substituted glutarimides and their use as inhibitors of IL-12 production” (Gruenenthal, GmbH, priority 2000, dated 2003).
Where a name gives a salt, the structure may show the parent alone.

Row | Structure (SMILES) | melting point
1 | NC(=O)c1ccccc1CN[C@H]1CCC(=O)NC1=O (as salt: hydrobromid) [Example 8.3, 2-[(3S)-(2,6-dioxopiperidin-3-ylamino)methyl]benzamide] | 155 to 156 °C (dec.)
2 | NNC(=O)c1ccccc1CN[C@H]1CCC(=O)NC1=O (as salt: hydrobromid) [Example 8.6, 2-[(3S)-(2,6-dioxopiperidin-3-ylamino)methyl]benzoic acid hydrazide] | 241 to 242 °C
3 | O=C1CC[C@H](NCc2ccccc2C(=O)Nc2ccccc2)C(=O)N1 (as salt: hydrobromid) [Example 8.7, 2-[(3S)-(2,6-dioxopiperidin-3-ylamino)methyl]-N-phenylbenzamide] | 136 to 138 °C
4 | NC(=O)c1ccccc1CN[C@@H]1CCC(=O)NC1=O (as salt: hydrobromid) [Example 8.12, 2-[(3R)-(2,6-dioxopiperidin-3-ylamino)methyl]benzamide] | 232 to 233 °C
5 | O=C1CCC(NCc2ccccc2C(F)(F)F)C(=O)N1 (racemic) (as salt: hydrochloride) [Example 2.1, 3-(2-trifluoromethylbenzylamino) piperidine-2,6-dione] | > 250 °C (dec.)
6 | COc1ccc(CNC2CCC(=O)NC2=O)c(OC)c1 (racemic) (as salt: hydrochloride) [Example 2.2, 3-(2,4-dimethoxybenzylamino) piperidine-2,6-dione] | 214 °C (dec.)
7 | O=C1CCC(NCc2c(F)cccc2F)C(=O)N1 (racemic) (as salt: hydrochloride) [Example 2.3, 3-(2,6-difluorobenzylamino) piperidine-2,6-dione] | 208 to 215 °C (dec.)
8 | O=C1CCC(NCc2cc(F)ccc2F)C(=O)N1 (racemic) (as salt: hydrochloride) [Example 2.4, 3-(2,5-difluorobenzylamino) piperidine-2,6-dione] | 208 °C (dec.)
9 | O=C1CCC(NCc2cc(F)cc(F)c2)C(=O)N1 (racemic) (as salt: hydrochloride) [Example 2.5, 3-(3,5-difluorobenzylamino) piperidine-2,6-dione] | 230 to 236 °C (dec.)
10 | O=C1CCC(NCc2cccc3ccccc23)C(=O)N1 (racemic) (as salt: hydrochloride) [Example 2.6, 3-[(naphth-1-ylmethyl)amino]piperidine-2,6-dione] | 188 °C (dec.)
11 | O=C1CCC(NCc2cccc(F)c2F)C(=O)N1 (racemic) (as salt: hydrochloride) [Example 2.7, 3-(2,3-difluorobenzylamino) piperidine-2,6-dione] | 206 to 212 °C (dec.)
12 | O=C1CCC(NCc2cccc(OC(F)(F)F)c2)C(=O)N1 (racemic) (as salt: hydrochloride) [Example 2.11, 3-(3-trifluoromethoxybenzylamino) piperidine-2,6-dione] | 199 to 201 °C
13 | O=C1CCC(NCc2ccc(F)cc2Cl)C(=O)N1 (racemic) (as salt: hydrochloride) [Example 2.13, 3-(2-chloro-4-fluorobenzylamino) piperidine-2,6-dione] | 241 to 242 °C
14 | Cc1cccc(Cl)c1CNC1CCC(=O)NC1=O (racemic) (as salt: hydrochloride) [Example 2.15, 3-(2-chloro-6-methylbenzylamino) piperidine-2,6-dione] | 238 to 240 °C
15 | Cc1ccccc1CNC1CCC(=O)NC1=O (racemic) (as salt: hydrochloride) [Example 2.16, 3-(2-methylbenzylamino) piperidine-2,6-dione] | 235 to 240 °C
16 | O=C1CCC(NCc2cc(Cl)cc(Cl)c2)C(=O)N1 (racemic) (as salt: hydrochloride) [Example 2.17, 3-(3,5-dichlorobenzylamino) piperidine-2,6-dione] | 234 to 238 °C

Row | Structure (SMILES) | melting point
17 | O=C1CCC(NCc2cc(F)cc(C(F)(F)F)c2)C(=O)N1 (racemic) (as salt: hydrochloride) [Example 2.18, 3-[3-fluoro-5-(trifluoromethyl)benzylamino]piperidine-2,6-dione] | 241 to 243 °C
18 | O=C1CCC(NCc2cccc(F)c2)C(=O)N1 (racemic) (as salt: hydrochloride) [Example 2.19, 3-(3-fluorobenzylamino) piperidine-2,6-dione] | 231 to 235 °C
19 | Cc1cccc(CNC2CCC(=O)NC2=O)c1 (racemic) (as salt: hydrochloride) [Example 2.20, 3-(3-methylbenzylamino) piperidine-2,6-dione] | 240 to 242 °C
20 | O=C1CCC(NCc2ccc(C(F)(F)F)cc2)C(=O)N1 (racemic) (as salt: hydrochloride) [Example 2.21, 3-(4-trifluoromethylbenzylamino) piperidine-2,6-dione] | 252 to 255 °C
21 | O=C1CCC(NCc2ccc(F)cc2)C(=O)N1 (racemic) (as salt: hydrochloride) [Example 2.23, 3-(4-fluorobenzylamino) piperidine-2,6-dione] | 241 to 242 °C
22 | O=C1CCC(NCc2cccc(Cl)c2)C(=O)N1 (racemic) (as salt: hydrochloride) [Example 2.26, 3-(3-chlorobenzylamino) piperidine-2,6-dione] | 237 to 238 °C
23 | O=C1CCC(NCc2ccc(Cl)cc2Cl)C(=O)N1 (racemic) (as salt: hydrochloride) [Example 2.28, 3-(2,4-dichlorobenzylamino) piperidine-2,6-dione] | 240 to 242 °C
24 | O=C1CCC(NCc2ccccc2F)C(=O)N1 (racemic) (as salt: hydrochloride) [Example 2.29, 3-(2-fluorobenzylamino) piperidine-2,6-dione] | 245 to 247 °C
25 | O=C1CCC(NCc2ccccc2Br)C(=O)N1 (racemic) (as salt: hydrochloride) [Example 2.30, 3-(2-bromobenzylamino) piperidine-2,6-dione] | 244 to 246 °C
26 | O=C1CCC(NCc2cccc(Cl)c2Cl)C(=O)N1 (racemic) (as salt: hydrochloride) [Example 2.32, 3-(2,3-dichlorobenzylamino) piperidine-2,6-dione] | 246 to 248 °C
27 | O=C1CCC(NCc2ccc(Cl)c(Cl)c2)C(=O)N1 (racemic) (as salt: hydrochloride) [Example 2.33, 3-(3,4-dichlorobenzylamino) piperidine-2,6-dione] | 252 to 254 °C
28 | O=C1CCC(NCc2cc(C(F)(F)F)cc(C(F)(F)F)c2)C(=O)N1 (racemic) (as salt: hydrochloride) [Example 2.34, 3-[3,5-bis(trifluoromethyl)benzylamino]piperidine-2,6-dione] | 263 to 265 °C
29 | O=C1CCC(NCc2cccc(Br)c2)C(=O)N1 (racemic) (as salt: hydrochloride) [Example 2.35, 3-(3-bromobenzylamino) piperidine-2,6-dione] | 229 to 232 °C
30 | O=C1CCC(NCc2ccc(OC(F)(F)F)cc2)C(=O)N1 (racemic) (as salt: hydrochloride) [Example 2.36, 3-(4-trifluoromethoxybenzylamino) piperidine-2,6-dione] | 253 to 255 °C
31 | O=C1CCC(NCc2ccc(Cl)cc2)C(=O)N1 (racemic) (as salt: hydrochloride) [Example 2.37, 3-(4-chlorobenzylamino) piperidine-2,6-dione] | 262 to 265 °C
